According to patent publication US20230383129A1, “ANTIFOULING COMPOUNDS” (I-Tech AB, priority 2020, published 2023):

What was measured:
barnacle cyprid larva = conditions: barnacles; cited from earlier work
[1] = Stability/hydrolysis of monomers in ethanol and PBS buffer followed by TLC (Setup 1); type: physicochemical; conditions: after two weeks
Procedure: The stability of the carbamate-(M3), urea-(M4) and sulfonylderivative of medetomidine (M2 and M0) were studied in ethanol and phosphate-buffered saline (PBS) buffer. Thin-layer chromatography (TLC) was used to follow the decomposition of the derivatives to free medetomidine. It took approximately two weeks until most of the derivatives stored at room temperature to decompose. If the storage temperature was +6° C. no decomposition was observed.
Nine vials were prepared. Vial 1 contained reference compound medetomidine dissolved in ethanol (1 ml). Substance M2 (25 mg) was added to vial 2 and 3. Substance M3 (25 mg) was added to vial 4 and 5. Substance M4 (25 mg) was added to vial 6 and 7 and substance M0 was added to vial 8 and 9. The solid material in vials 2 to 9 were dissolved in ethanol (1 ml) and PBS buffer pH 7.4 (1 ml) to mimic sea water containing different salts and having a pH slightly basic. Ethanol was chosen as solvent to increase the solubility of the substances. During the study vial 1, 3, 5, 7 and 9 were stored at room temperature, whereas vial 2, 4, 6 and 8 were stored in a refrigerator at +6° C. Stability of the compounds was studied after 0, 1, 2, 5, 6, 9, 13 and 15 days using TLC and dichloromethane—methanol (95-5) as eluent.

[2] = Release of I from monomers into artificial seawater, LC-MS (Setup 2); type: physicochemical; conditions: for Concentration of I released: artificial seawater 3% NaCl pH 8.0, ambient temperature; for Concentration of I (near constant over the study): artificial seawater, days 10-25
Procedure: The stability of M1 and M4 was evaluated via quantification of the release of I into artificial seawater (3% NaCl, pH 8.0). For the experiments, compound M1 (0.023 g) was suspended in 5 mL artificial seawater, while M4 (0.044 g) were suspended in 10 mL artificial seawater. The solutions were stirred (300 rpm) at ambient temperatures and samples were collected at 10, 15, 20 and 25 days. The samples were stored in freezer 2-2.5 months prior to LC-MS analysis.
Samples from the release studies were analyzed using LC-MS. The LC-MS system was composed of an Acquity I-class UPLC with a Waters Xevo G2-S Qtof. The chromatographic separation was obtained on a C18 column with gradient elution (Eluent A, 0.1% NH4 in MQ-water and Eluent B, 100% acetonitrile). The samples (from freezer) were extracted with hexane and the organic extracts were analyzed by LC-MS. Three external calibration curves for I, M1 and M4 were prepared the same way as the samples and used for quantification.

[3] = ethanol/PBS buffer pH 7.4, refrigerator +6° C.
[4] = ethanol/PBS buffer pH 7.4, room temperature

| SMILES | concentration impeding larval settlement (barnacle cyprid larva) [nM] | decomposition to free medetomidine (TLC) [1, 3] | decomposition to free medetomidine (TLC) [1, 4] | Concentration of I released ([2]; incubation 10 days) [ng/mL] | Concentration of I released ([2]; incubation 15 days) [ng/mL] | Concentration of I released ([2]; incubation 20 days) [ng/mL] | Concentration of I released ([2]; incubation 25 days) [ng/mL] | Concentration of I (near constant over the study) [2] [ng/mL] |
| --- | --- | --- | --- | --- | --- | --- | --- | --- |
| Cc1cccc(C(C)c2c[nH]cn2)c1C (racemic) [medetomidine, (±)-4-[1-(2,3-dimethylphenyl)ethyl)-1H-imidazole] | 1 to 10 | – | – | – | – | – | – | – |
| Cc1cccc(C(C)c2cn(S(C)(=O)=O)cn2)c1C (stereo not drawn) [Compound M0, 4-[1-(2,3-dimethylphenyl)ethyl]-1-(methanesulfonyl)-1H-imidazole] | – | stable | stable | – | – | – | – | – |
| C=C(C)C(=O)n1cnc(C(C)c2cccc(C)c2C)c1 (stereo not drawn) [Compound M1, 1-{4-[1-(2,3-dimethylphenyl)ethyl]-1H-imidazol-1-yl}-2-methylprop-2-en-1-one] | – | – | – | 9330.0 | 9905.8 | 9748.8 | 9820.4 | ~9000 |
| C=CCS(=O)(=O)n1cnc(C(C)c2cccc(C)c2C)c1 (stereo not drawn) [Compound M2, 4-[1-(2,3-dimethylphenyl)ethyl]-1-(prop-2-ene-1-sulfonyl)-1H-imidazole] | – | mixture of medetomidine and the starting material | only medetomidine | – | – | – | – | – |
| C=CCOC(=O)n1cnc(C(C)c2cccc(C)c2C)c1 (stereo not drawn) [Compound M3, prop-2-en-1-yl 4-[1-(2,3-dimethylphenyl)ethyl]-1H-imidazole-1-carboxylate] | – | mixture of medetomidine and the starting material | only medetomidine | – | – | – | – | – |
| C=CCNC(=O)n1cnc(C(C)c2cccc(C)c2C)c1 (stereo not drawn) [Compound M4, 4-[1-(2,3-dimethylphenyl)ethyl]-N-(prop-2-en-1-yl)-1H-imidazole-1-carboxamide] | – | stable | decomposition to medetomidine as well as non-hydrolyzed M4 | 5028.9 | 5592.2 | 5078.0 | – | ~5000 |
